Reference: patent US20220040162A1, “COMPOSITIONS COMPRISING A CRAC INHIBITOR AND A CORTICOSTEROID AND METHODS OF USE THEREOF” (Rhizen Pharmaceuticals AG, priority 2018, published 2022)

Columns and labels:
[1] = tested on: U937 cells; experiment: H2O2 induced corticosteroid insensitivity in U937 cells (TNF-α induced IL-8, ELISA); format: cell-based; settings: H2O2 treated U937 macrophages; addition of 1 μM Compound A; FIG. 1B
Protocol: U937 cells were maintained in RPMI-1640 with 15 mM glutamine. 6×10^6 cells were taken in a T-25 flask with 12 ml of fresh medium and treated with 1 μM of Compound A and incubated at 37° C. and 5% CO2 for 30 min.
H2O2 was added at a final concentration of 200 μM to the above cells and incubated for 2 h.
Cells were pelleted and resuspended in serum free media and seeded on to a 96-well plate at 0.15×10^6 cells per well in 100 μl.
50 μl of 3× dexamethasone at desired concentrations was added and incubated for 45 min
50 μl of 4× concentration of TNF-α was added such that the final concentration was 10 ng/ml, to induce IL-8 and incubated for 18 h.
Supernatant was collected and IL-8 was estimated by ELISA.
IL-8 strips were plated with fresh or thawed supernatants and incubated at room temperature for 2 h or overnight at 4° C.
Contents were discarded and strips were washed with 200 μl of wash buffer per well for 15 s for a total of 5 times.
Strips were blotted dry and 100 μl per well of 1× detection antibody was added and incubated at room temperature for 1 h.
Strips were blotted dry and 100 μl per well of 1× Avidin-HRP antibody was added and incubated at room temperature for 30 min.
Contents were discarded and the strips were washed with 200 μl per well of wash buffer for 15 s for a total of 5 times. […]
Absorbance was read on a plate reader at A450 nm and A570 nm.

[2] = tested on: mononuclear cells isolated from peripheral blood; experiment: LPS-induced IL-1β, IL-6 and GM-CSF release in mononuclear cells isolated from healthy and asthmatic patients; format: cell-based, human; settings: single agent
Protocol: Mononuclear cells were isolated from peripheral blood of healthy volunteers, and asthmatic patients. Briefly, PBMC were isolated from peripheral venous blood by standard laboratory procedures. Peripheral venous blood was mixed with dextran 500 at 3% (in 0.9% saline) in a proportion of 2:1. This mixture was incubated at room temperature for 30 min until sedimentation of erythrocytes. The upper phase was carefully collected and layered on Ficoll-Paque Histopaque 1077 density gradient in a proportion of 3:1. (PBMC) layer was isolated and quantified.
For the single agent study, isolated mononuclear cells were incubated with Compound A, or vehicle for 30 minutes before incubation with or without LPS for 6 hours in standard cell culture conditions (37° C. and 5% CO2). For the combination experiments, the same procedure was followed except that cells were incubated with Compound A (1 μM) in combination with fluticasone (0.1 nM). Supernatants were collected to measure IL-1β, IL-6, and GM-CSF. Data was analysed using Graphpad Prism.

[3] = asthmatic patients, LPS stimulus 6 hours

## Cc1ccccc1C(=O)Nc1ccc(-n2nc(C(F)(F)F)cc2C2CC2)nc1 [Compound A, N-{6-[5-cyclopropyl-3-(trifluoromethyl)-1H-pyrazol-1-yl]pyridin-3-yl}-2-methyl benzamide]
[1]
  reduction in IC50 of dexamethasone for IL-8 release: 3 fold
[2]; [3]
  percentage maximum effect (% Emax), GM-CSF release: 80±16.4%
  percentage maximum effect (% Emax), IL1β release: 68.9±23.7%
  percentage maximum effect (% Emax), IL6 release: 52.5±30.3%
[2]; healthy donors, LPS stimulus
  % Emax for IL1β compared with asthmatic cells: higher % Emax
